Reference: patent US5872115A, “2-ureido-benzamide derivatives” (Grelan Pharmaceutical Co. Ltd., priority 1995, dated 1999)
pIC50: −log10 of the molar value. Read-outs that look alike come from different tables or passages of the source.

Key:
[1] = target: T1, THP-1 microsomal ACAT (Homo sapiens, UniProt P35610); test: In vitro test using THP-1 microsome (ACAT inhibition); format: biochemical
T1 construct: ACAT enzyme fraction was prepared from microsome of human leukemia THP-1 cell; endogenous in cells; host or cells: THP-1 (human leukemia), microsomes
T1 sequence (P35610 1-550): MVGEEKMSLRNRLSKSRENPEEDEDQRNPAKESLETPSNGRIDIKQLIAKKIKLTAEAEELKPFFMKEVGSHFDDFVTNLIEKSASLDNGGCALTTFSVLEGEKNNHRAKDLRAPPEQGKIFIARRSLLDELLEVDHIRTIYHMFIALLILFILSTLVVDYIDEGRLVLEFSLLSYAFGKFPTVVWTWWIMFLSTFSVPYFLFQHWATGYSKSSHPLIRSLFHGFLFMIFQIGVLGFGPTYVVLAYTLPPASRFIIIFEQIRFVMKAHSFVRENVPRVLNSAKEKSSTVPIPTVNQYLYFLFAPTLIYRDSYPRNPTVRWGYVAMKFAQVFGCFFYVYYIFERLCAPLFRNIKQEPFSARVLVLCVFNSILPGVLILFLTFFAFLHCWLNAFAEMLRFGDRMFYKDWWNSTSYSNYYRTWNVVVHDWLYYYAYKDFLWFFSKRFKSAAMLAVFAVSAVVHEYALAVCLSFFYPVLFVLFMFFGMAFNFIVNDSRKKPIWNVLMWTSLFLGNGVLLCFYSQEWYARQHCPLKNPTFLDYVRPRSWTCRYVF
Experimental: (4) In Vitro Test Using THP-1 Microsome
Then, the reaction was initiated by the addition of 5 nmoles of labeled [^14 C] oleoyl-CoA dissolved in 20 μl of said phosphate buffer solution containing BSA and the reaction was stopped by the addition of 20 μl of 2N HCl after 10 minutes. [^14 C] cholesterol-oleate formed was separated by thin-layer chromatography and the radioactivity was counted with liquid scintillation counter.
ACAT inhibitory activities of the test compounds were shown as IC50 values.

[2] = target: T1, THP-1 microsomal ACAT; test: Bioavailability assessment of ACAT inhibitors by their ex vivo activity (serum of dosed mice on THP-1 microsomal ACAT); format: in vivo
Experimental: (5) Bioavailability Assessment of ACAT Inhibitors by Their <<ex vivo>> Activity
[…] Blood samples were collected 0.5, 1, 1.5, 2, 6 hour postdose. Serum were harvested after gentle centrifugation and stored at -20.
The following day, 10 μl serum were preincubated at 37 for 5 minutes with 20 μl of THP-1 microsomal ACAT and then incubated 10 minutes with 20 μl of radiolabeled oleoyl-CoA as described above in method (4). The serum is used instead of the drug solution.
ACAT inhibitory activities of the test compounds were shown as maximum inhibition percentages (Imax).

[3] = THP-1 microsome, read-out: IC50 THP1 microsome
[4] = female mice, 30 mg/kg per os, 1% CMC-Na 0.2% Tween 80, maximum inhibition by serum
[5] = tested at 100 mg/kg in a suspension of 0.5% CMC-Na (footnote *)

Row | pIC50 [1, 3] | Imax Ex vivo [2, 4] | Imax Ex vivo [2, 5] | Structure (SMILES) | pIC50 [1]
1 | 7.70 | 38.17% |  | CCCCNC(=O)Nc1ccc(SC)cc1C(=O)NCC1CCN(C(c2ccccc2)c2ccccc2)CC1 [Example 73] | 
2 | 7.00 | 50.15% |  | CCCCCCCNC(=O)Nc1ccc(N2CCOCC2)cc1C(=O)NCC1CCN(C(c2ccccc2)c2ccccc2)CC1 [Example 82, 2-(N'-n-Heptylureido)-5-(morpholin-4-yl)-N-[(1-diphenylmethylpiperidin-4-yl)methyl]-benzamide] | 
3 | 7.22 |  |  | CCCCCCCNC(=O)Nc1ccc(N(C)C)cc1C(=O)NCC1CCCN(C(c2ccccc2)c2ccccc2)C1 (stereo not shown) [Example 89, 2-(N'-n-Heptylureido)-5-dimethylamino-N-[(1-diphenylmethylpiperidin-3-yl)methyl]-benzamide] | 
4 | 7.40 |  | 74.11% | CCCCCCCNC(=O)Nc1ccc(OC)cc1C(=O)NCC1CCN(C(c2ccccc2)c2ccccc2)CC1 [Example 81, 2-(N'-n-Heptylureido)-5-methoxy-N-[(1-diphenylmethylpiperidin-4-yl)methyl]benzamide] | 
5 | 6.77 |  |  | CCCCCCCCCCNC(=O)Nc1ccc(N(C)C)cc1C(=O)NCC1CCN(C(c2ccccc2)c2ccccc2)CC1 [Example 80, 2-(N'-n-Decylureido)-5-dimethylamino-N-[(1-diphenylmethylpiperidin-4-yl)methyl]-benzamide] | 
6 | 6.40 |  |  | CCCCNC(=O)Nc1ccc(N)cc1C(=O)NCC1CCN(C(c2ccccc2)c2ccccc2)CC1 [Example 109, 5-Amino-2-(N'-n-butylureido)-N-[(1-diphenylmethylpiperidin-4-yl)methyl]-benzamide] | 
7 | 6.70 |  |  | CCCCNC(=O)Nc1ccc(NC)cc1C(=O)NCC1CCN(C(c2ccccc2)c2ccccc2)CC1 [Example 112, 5-Methylamino-2-(N'-n-butylureido)-N-[(1-diphenylmethylpiperidin-4-yl)methyl]benzamide] | 
8 | 7.40 |  |  | CCCCCCCNC(=O)Nc1ccc(OCC)cc1C(=O)NCC1CCN(C(c2ccccc2)c2ccccc2)CC1 [Example 86, 5-Ethoxy-2-(N'-n-heptylureido)-N-[(1-diphenylmethylpiperidin-4-yl)methyl]-benzamide] | 
9 | 7.30 | 51.97% |  | CCCCNC(=O)Nc1ccc(OC)cc1C(=O)NCC1CCN(C(c2ccccc2)c2ccccc2)CC1 [Example 67, 2-(N'-Butylureido)-5-methoxy-N-[(1-diphenylmethylpiperidin-4-yl)methyl]-benzamide] | 
10 | 7.00 | 62.01% |  | CCCCNC(=O)Nc1ccc([S+](C)[O-])cc1C(=O)NCC1CCN(C(c2ccccc2)c2ccccc2)CC1 (stereo not shown) [111 (a)] | 
11 | 7.22 | 11.33% |  | CCCCCCCNC(=O)Nc1ccc(N2CCCC2)cc1C(=O)NCC1CCN(C(c2ccccc2)c2ccccc2)CC1 [Example 85, 2-(N'-n-Heptylureido)-5-(pyrrolidin-1-yl)-N-[(1-diphenylmethylpiperidin-4-yl)methyl]-benzamide] | 
12 | 6.66 |  |  | CCCCCCCNC(=O)Nc1ccc(C(C)C)cc1C(=O)NCC1CCN(C(c2ccccc2)c2ccccc2)CC1 [Example 106, 2-(N'-n-Heptylureido)-5-isopropyl-N-[(1-diphenylmethylpiperidin-4-yl)methyl]benzamide] | 
13 | 6.66 |  | 63.26% | CCCCCCCNC(=O)Nc1ccc(-n2ccnc2)cc1C(=O)NCC1CCN(C(c2ccccc2)c2ccccc2)CC1 [Example 79, 2(N'-n-Heptylureido)-5-(imidazol-1-yl)-N-[(1-diphenylmethylpiperidin-4-yl)methyl]-benzamide] | 
14 | 6.70 | 43.14% |  | CCCCNC(=O)Nc1ccc(-n2ccnc2)cc1C(=O)NCC1CCN(C(c2ccccc2)c2ccccc2)CC1 [Example 64, 2-(N'-n-Butylureido)-5-(imidazol-1-yl)-N-[(1-diphenylmethylpiperidin-4-yl)-methyl]-benzamide] | 
15 | 7.00 |  |  | O=C(NCC1CC1)Nc1ccc(N2CCOCC2)cc1C(=O)NCC1CCN(C(c2ccccc2)c2ccccc2)CC1 [Example 105, 2-(N'-Cyclopropylmethylureido)-5-(morpholin-4-yl)-N-[(1-diphenylmethylpiperidin-4-yl)methyl]benzamide] | 
16 | 7.10 | 20.45% |  | CCCCCCCNC(=O)Nc1ccc(N(C)C)cc1C(=O)NCC1CCN(Cc2ccccc2-c2ccccc2)CC1 [Example 96, 2-(N'-n-Heptylureido)-5-dimethylamino-N-[1-(2-biphenylmethylpiperidin-4-yl)methyl]-benzamide] | 
17 | 7.22 | 37.43% |  | CCCCNC(=O)Nc1ccc(N2CCCC2)cc1C(=O)NCC1CCN(C(c2ccccc2)c2ccccc2)CC1 [Example 65, 2-(N'-n-Butylureido)-5-(pyrrolidin-1-yl)-N-[(1-diphenylmethylpiperidin-4-yl)methyl]-benzamide] | 
18 | 6.52 |  |  | CCCCCCCNC(=O)Nc1ccc(N(C)C)cc1C(=O)NCC1CCN(C(c2ccc(Cl)cc2)c2ccc(Cl)cc2)CC1 [Example 92, 2-(N'-n-Heptylureido)-5-dimethylamino-N-[[1-bis(4-chlorophenyl)methylpiperidin-4-yl]-methyl]benzamide] | 
19 | 7.40 | 24.17% |  | CCCCCCCNC(=O)Nc1ccc(N(C)C)cc1C(=O)NCC1CCN(C(c2ccc(F)cc2)c2ccc(F)cc2)CC1 [Example 93, 2-(N'-n-Heptylureido)-5-dimethylamino-N-[[1-bis(4-fluorophenyl)methylpiperidin-4-yl]-methyl]benzamide] | 
20 | 7.52 | 40.11% |  | CCCCNC(=O)Nc1ccc(OCC2CC2)cc1C(=O)NCC1CCN(C(c2ccccc2)c2ccccc2)CC1 [Example 69, 2-(N'-n-Butylureido)-5-cyclopropylmethoxy-N-[(1-diphenylmethylpiperidin-4-yl)methyl]-benzamide] | 
21 | 7.05 |  |  | COCCCNC(=O)Nc1ccc(N(C)C)cc1C(=O)NCC1CCN(C(c2ccccc2)c2ccccc2)CC1 [Example 103, 2-(N'-3-Methoxypropylureido)-5dimethylamino-N-[(1-diphenylmethylpiperidin-4-yl)methyl]benzamide] | 
22 | 7.00 | 5.75% |  | CCCCCCCNC(=O)Nc1ccc(-n2cccn2)cc1C(=O)NCC1CCN(C(c2ccccc2)c2ccccc2)CC1 [Example 84, 2-(N'-n-Heptylureido)-5-(pyrazol-1-yl)-N-[(1-diphenylmethylpiperidin-4-yl)-methyl]-benzamide] | 
23 | 7.40 | 39.01% |  | CCCCCNC(=O)Nc1ccc(N(C)C)cc1C(=O)NCC1CCN(C(c2ccccc2)c2ccccc2)CC1 [Example 100, 5-Dimethylamino-2-(N'-n-pentylureido)-N-[(1-diphenylmethylpiperidin-4-yl)methyl]benzamide] | 
24 | 7.10 | 61.47% |  | CCCCCCCNC(=O)Nc1ccc(N(C)C(C)=O)cc1C(=O)NCC1CCN(C(c2ccccc2)c2ccccc2)CC1 [Example 91, 5-(N-Acetyl-N-methyl)amino-2-(N'-n-heptylureido)-N-[(1-diphenylmethylpiperidin-4-yl)-methyl]benzamide] | 
25 | 7.05 | 63.56% |  | CCCCNC(=O)Nc1ccc(S(C)(=O)=O)cc1C(=O)NCC1CCN(C(c2ccccc2)c2ccccc2)CC1 [Example 111 (b), 2-(N'-n-butylureido)-5-methylsulfonyl-N-[(1-diphenylmethylpiperidin-4-yl)-methyl]benzamide] | 
26 | 7.00 |  |  | COCCCNC(=O)Nc1ccc(N2CCOCC2)cc1C(=O)NCC1CCN(C(c2ccccc2)c2ccccc2)CC1 [Example 104, 2-(N'-3-Methoxypropylureido)-5-(morpholin-4-yl)-N-[(1-diphenylmethylpiperidin-4-yl)methyl]benzamide] | 
27 | 6.70 |  |  | CCCCCCCNC(=O)Nc1ccc(N(CC)CC)cc1C(=O)NCC1CCN(C(c2ccccc2)c2ccccc2)CC1 [Example 87, 5-Diethylamino-2-(N'-n-heptylureido)-N-[(1-diphenylmethylpiperidin-4-yl)-methyl]-benzamide] | 
28 | 6.57 |  |  | CCCCCCCNC(=O)Nc1ccc(N2CCCCC2)cc1C(=O)NCC1CCN(C(c2ccccc2)c2ccccc2)CC1 [Example 83, 2-(N'-n-Heptylureido)-5-(piperidin-1-yl)-N-[(1-diphenylmethylpiperidin-4-yl)methyl]benzamide] | 

Row | Structure (SMILES) | pIC50 [1, 3] | Imax Ex vivo [2, 4] | Imax Ex vivo [2, 5] | pIC50 [1]
29 | CCCCNC(=O)Nc1ccc(OC(=O)NCCCC)cc1C(=O)NCC1CCN(C(c2ccccc2)c2ccccc2)CC1 [77 (b), 5-n-butylcarbamyloxy-2-(N'-n-butylureido)-N-[(1-diphenylmethylpiperidin-4-yl)methyl]benzamide] |  | 41.37% |  | 7.30
